A word on the IC50: it is the midpoint of a concentration-inhibition curve.

The results in this text go back to US20220235065A1 (Epizyme, Inc., priority 2016, published 2022).

The test system of assay [1] is H3K9me2 in MDA-MB-231 cells. Kind of assay: MDA-MB-231 H3K9me2 in-cell western assay. It is filed as cell-based. The settings on record: Homo sapiens, read-out: EHMT2 ICW (IC50 μM). The method, boiled down:
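MDA-MB-231 cells (3,000/well) exposed to compound for two consecutive 48 h periods at 37 °C, then fixed and stained for H3K9me2, with DRAQ5 as DNA stain and infrared read at 700/800 nm. Percent inhibition was set between DMSO and UNC0638 control wells. IC50 came from triplicate dose–response fits with a four-parameter model, top 100%, bottom 0%.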

The target of the next assay is T1, EHMT1 (Homo sapiens, UniProt Q9H9B1).
T1 sequence (Q9H9B1 1-1298): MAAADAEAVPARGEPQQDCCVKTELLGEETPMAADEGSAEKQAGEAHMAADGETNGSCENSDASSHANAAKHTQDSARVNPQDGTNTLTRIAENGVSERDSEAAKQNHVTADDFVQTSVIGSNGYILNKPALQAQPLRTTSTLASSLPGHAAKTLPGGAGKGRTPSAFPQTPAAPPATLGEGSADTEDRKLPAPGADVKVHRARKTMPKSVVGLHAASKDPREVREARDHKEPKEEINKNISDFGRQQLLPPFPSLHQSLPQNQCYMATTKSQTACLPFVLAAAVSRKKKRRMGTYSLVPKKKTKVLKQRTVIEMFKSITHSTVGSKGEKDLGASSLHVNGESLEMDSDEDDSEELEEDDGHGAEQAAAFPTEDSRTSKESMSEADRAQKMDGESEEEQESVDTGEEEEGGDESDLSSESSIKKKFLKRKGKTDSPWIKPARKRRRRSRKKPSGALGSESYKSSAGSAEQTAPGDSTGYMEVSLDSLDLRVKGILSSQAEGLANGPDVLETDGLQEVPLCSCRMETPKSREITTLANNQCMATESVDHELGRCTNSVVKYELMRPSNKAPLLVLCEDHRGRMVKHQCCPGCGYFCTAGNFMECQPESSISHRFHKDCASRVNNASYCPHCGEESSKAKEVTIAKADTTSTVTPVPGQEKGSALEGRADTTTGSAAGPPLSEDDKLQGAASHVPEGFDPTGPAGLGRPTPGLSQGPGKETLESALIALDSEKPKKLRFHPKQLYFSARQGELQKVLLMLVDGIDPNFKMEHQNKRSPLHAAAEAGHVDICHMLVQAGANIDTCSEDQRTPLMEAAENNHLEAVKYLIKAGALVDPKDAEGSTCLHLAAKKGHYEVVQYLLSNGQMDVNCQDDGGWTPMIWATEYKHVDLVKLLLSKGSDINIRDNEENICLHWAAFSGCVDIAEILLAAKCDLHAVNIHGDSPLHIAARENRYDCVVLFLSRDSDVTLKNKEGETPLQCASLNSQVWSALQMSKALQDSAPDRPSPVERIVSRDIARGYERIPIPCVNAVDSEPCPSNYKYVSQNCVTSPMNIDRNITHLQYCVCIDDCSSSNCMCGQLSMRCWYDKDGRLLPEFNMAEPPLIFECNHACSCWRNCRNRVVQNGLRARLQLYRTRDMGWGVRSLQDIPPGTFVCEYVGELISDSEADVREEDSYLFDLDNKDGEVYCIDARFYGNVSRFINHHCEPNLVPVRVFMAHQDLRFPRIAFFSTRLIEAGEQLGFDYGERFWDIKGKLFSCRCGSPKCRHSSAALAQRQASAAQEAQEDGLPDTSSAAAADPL
Kind of assay: EHMT1 PEP (EHMT1 peptide enzyme assay). Particulars: peptide substrate enzyme assay. It is filed as biochemical.

Counter-ions that a name gives are not always drawn. Bounds are passed on as bounds.

With `CNc1cc(C)nc(Nc2ccc(OC)c(-n3cc4c(n3)CCN(C)C4)c2)n1` [Compound 2], the IC50 was 0.1 to 1 µM in assay [1] and less than 0.1 µM on EHMT1.

Take `CNc1cc(C)nc(Nc2ccc(OC)c(-n3cc4c(n3)CN(C)CC4)c2)n1` [Compound 3]: the IC50 in assay [1] is greater than 10 µM; at EHMT1 it was 0.1 to 1 µM.

Turning to `CNc1cc(C)nc(Nc2ccc(OC)c(-n3ccc(CN4CCCC4)n3)c2)n1` [Compound 4, trifluoroacetic acid], the IC50 (in assay [1]; against EHMT1) was 1 to 10 µM in each case.

In the case of `CNc1cc(C)nc(Nc2ccc(OC)c(-n3cc(CN4CCCC4)cn3)c2)n1` [Compound 5, 2-N-[4-methoxy-3-[4-(pyrrolidin-1-ylmethyl)-1H-pyrazol-1-yl]phenyl]-4-N,6-dimethylpyrimidine-2,4-diamine], the IC50 in assay [1] was 1 to 10 µM; against EHMT1, 0.1 to 1 µM.

As for `CNc1cc(C)nc(Nc2ccc(OC)c(-n3cc4ccncc4n3)c2)n1` [Compound 41], the values for the IC50 (in assay [1]; against EHMT1) were greater than 10 µM and 1 to 10 µM, respectively.

Regarding `CNc1cc(C)nc(Nc2ccc(OC)c(-c3ccc4cc[nH]c4n3)c2)n1` [Compound 42], the IC50 (in assay [1]; at EHMT1) was greater than 10 µM in each case.

As to `CNc1cc(C)nc(Nc2ccc(OC)c(-n3cc4c(n3)CCOC4)c2)n1` [Compound 43], the IC50 in assay [1] is greater than 10 µM; against EHMT1, 1 to 10 µM.

In the case of `CNc1cc(C)nc(Nc2ccc(OC)c(-c3nc4cnccc4[nH]3)c2)n1` [Compound 47], the IC50 is greater than 10 µM in assay [1] and 1 to 10 µM against EHMT1.

Take `CNc1cc(C)nc(Nc2ccc(OC)c(-c3cc4cnccc4[nH]3)c2)n1` [Compound 48]: the IC50 in assay [1] was 1 to 10 µM; at EHMT1 it was less than 0.1 µM.

As to `CCn1cc(NC(=O)c2cc(Nc3nc(C)cc(NC)n3)ccc2OC)cn1` [Compound 49], the IC50 (in assay [1]; against EHMT1) was greater than 10 µM in each case.

On to `CNc1cc(C)nc(Nc2cnc(OC)c(-n3cc4c(n3)CCNC4)c2)n1` [Compound 50], for which the IC50 in assay [1] was greater than 10 µM; at EHMT1, 0.1 to 1 µM.

In the case of `CNc1cc(C)nc(Nc2ccc(OC)c(-n3cc4c(n3)CCCN4)c2)n1` [Compound 56, N2-(4-methoxy-3-(4,5,6,7-tetrahydro-2H-pyrazolo[4,3-b]pyridin-2-yl)phenyl)-N4,6-dimethylpyrimidine-2,4-diamine hydrochloride], the IC50 is greater than 10 µM in assay [1] and 1 to 10 µM against EHMT1.

Consider `CNc1cc(C)nc(Nc2cnc(OC)c(-n3cc4c(n3)CCN(C)C4)c2)n1` [Compound 57], for which the IC50 fell in the range of 1 to 10 µM in assay [1] and 0.1 to 1 µM against EHMT1.

Regarding `CNc1cc(C)nc(Nc2cnc(OC)c(-c3nc4cnccn4n3)c2)n1` [Compound 60], the IC50 (in assay [1]; at EHMT1) was 1 to 10 µM throughout.

On to `CNc1cc(C)nc(Nc2ccc(OC)c(-n3cnc(CN(C)C)n3)c2)n1` [Compound 61], for which the IC50 was greater than 10 µM in assay [1] and 1 to 10 µM against EHMT1.

For the molecule `CNc1cc(C)nc(Nc2cnc(OC)c(-n3cnc(CN(C)C)n3)c2)n1` [Compound 62], the IC50 in assay [1] is greater than 10 µM; at EHMT1, 1 to 10 µM.

On to `CNc1cc(C)nc(Nc2cc(-n3cc4c(n3)CCN(C)C4)c(OC)cn2)n1` [Compound 65], for which the IC50 in assay [1] was greater than 10 µM; against EHMT1, 1 to 10 µM.

For `CNc1cc(C)nc(Nc2ccc(OC)c(-n3cc(CN(C)C)nn3)c2)n1` [Compound 66], the IC50 in assay [1] is 0.1 to 1 µM; against EHMT1, less than 0.1 µM.

Take `CNc1cc(C)nc(Nc2ccc(OC)c(-n3cnc(CN4CCC4)n3)c2)n1` [Compound 67]: the IC50 is greater than 10 µM in assay [1] and 1 to 10 µM at EHMT1.

Consider `CNc1cc(C)nc(Nc2ccc(OC)c(-n3cnc(CN4CC(F)C4)n3)c2)n1` [Compound 68], for which the IC50 (in assay [1]; on EHMT1) was greater than 10 µM throughout.

Regarding `CNc1cc(C)nc(Nc2ccc(OC)c(-n3cc4c(n3)CCN(C3COC3)C4)c2)n1` [Compound 69], the IC50 (in assay [1]; at EHMT1) was greater than 10 µM in each case.

On to `CCN1CCc2nn(-c3cc(Nc4nc(C)cc(NC)n4)ccc3OC)cc2C1` [Compound 70], for which the figures for the IC50 (in assay [1]; against EHMT1) were 1 to 10 µM and 0.1 to 1 µM, respectively.
